Experimental data: US20210346339A1, “THERAPEUTIC FLAVONOID BASED ANTIVIRAL AGENTS” (priority 2016, published 2021)

Tests used:
[1] = tested on: Vero 76 cells
[2] = target: AAK1 (Homo sapiens, UniProt Q2M2I8); test: Kinase inhibition assay (HotSpot); format: biochemical; details: 10 μM ATP; read-out: Compound IC50, AAK1
Text: (§1) In vitro profiling of lipid and tyrosine kinases was accomplished using the “HotSpot” assay platform.

[3] = target: T1, GAK (Homo sapiens, UniProt O14976); test: Kinase inhibition assay (HotSpot); format: biochemical; details: 10 μM ATP; read-out: Compound IC50, GAK
T1 sequence (O14976 1-1311): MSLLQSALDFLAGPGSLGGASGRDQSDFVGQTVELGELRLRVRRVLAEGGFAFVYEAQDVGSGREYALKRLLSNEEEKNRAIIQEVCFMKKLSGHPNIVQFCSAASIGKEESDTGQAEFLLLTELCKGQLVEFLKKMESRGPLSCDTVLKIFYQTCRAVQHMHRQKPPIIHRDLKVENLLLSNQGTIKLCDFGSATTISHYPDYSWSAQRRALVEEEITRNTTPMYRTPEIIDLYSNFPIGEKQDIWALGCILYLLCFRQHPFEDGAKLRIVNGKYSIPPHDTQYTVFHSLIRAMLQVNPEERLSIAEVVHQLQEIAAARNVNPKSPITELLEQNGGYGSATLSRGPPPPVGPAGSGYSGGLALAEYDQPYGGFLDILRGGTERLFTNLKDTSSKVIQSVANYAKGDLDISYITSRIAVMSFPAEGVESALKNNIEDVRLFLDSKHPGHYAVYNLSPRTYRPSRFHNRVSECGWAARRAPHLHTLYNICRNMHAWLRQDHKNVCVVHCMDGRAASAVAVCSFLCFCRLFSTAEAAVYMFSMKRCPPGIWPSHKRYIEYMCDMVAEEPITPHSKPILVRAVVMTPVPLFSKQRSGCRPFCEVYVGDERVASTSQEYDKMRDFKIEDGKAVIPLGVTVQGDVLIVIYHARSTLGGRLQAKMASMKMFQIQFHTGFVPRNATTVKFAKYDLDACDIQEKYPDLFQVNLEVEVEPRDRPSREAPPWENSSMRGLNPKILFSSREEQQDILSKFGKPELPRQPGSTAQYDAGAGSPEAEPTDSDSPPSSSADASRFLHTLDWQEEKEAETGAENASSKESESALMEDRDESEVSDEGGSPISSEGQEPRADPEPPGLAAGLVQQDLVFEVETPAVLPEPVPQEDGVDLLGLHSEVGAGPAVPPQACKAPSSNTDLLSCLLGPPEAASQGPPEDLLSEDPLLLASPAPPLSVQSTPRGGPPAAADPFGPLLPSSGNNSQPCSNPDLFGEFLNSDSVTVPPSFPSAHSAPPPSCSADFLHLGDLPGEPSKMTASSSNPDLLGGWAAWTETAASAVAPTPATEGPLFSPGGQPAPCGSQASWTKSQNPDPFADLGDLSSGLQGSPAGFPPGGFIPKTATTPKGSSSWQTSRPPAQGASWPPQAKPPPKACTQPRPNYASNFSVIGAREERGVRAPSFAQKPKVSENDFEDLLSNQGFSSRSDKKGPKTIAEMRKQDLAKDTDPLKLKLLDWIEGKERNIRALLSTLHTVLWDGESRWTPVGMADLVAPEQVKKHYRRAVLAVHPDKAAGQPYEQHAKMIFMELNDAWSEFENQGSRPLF
Text: as §1

[4] = target: BIKE (Homo sapiens, UniProt Q9NSY1); test: Kinase inhibition assay (HotSpot); format: biochemical; details: 10 μM ATP; read-out: Compound IC50, BIKE
Text: as §1

[5] = target: CSNK2A1 (Homo sapiens, UniProt P68400); test: Kinase inhibition assay (HotSpot); format: biochemical; details: 10 μM ATP; read-out: Compound IC50, CSNK2A1
Text: as §1

[6] = target: PI3Kb (Homo sapiens, UniProt P42338); test: Kinase inhibition assay (HotSpot); format: biochemical; details: 10 μM ATP; read-out: Compound IC50, PI3Kb
Text: as §1

[7] = target: ABL2 (Homo sapiens, UniProt P42684); test: Kinase inhibition assay (HotSpot); format: biochemical; details: 10 μM ATP; read-out: Compound IC50, ABL2
Text: as §1

[8] = target: CSNK2A2 (Homo sapiens, UniProt P19784); test: Kinase inhibition assay (HotSpot); format: biochemical; details: 10 μM ATP; read-out: Compound IC50, CSNK2A2
Text: as §1

[9] = target: MNK2 (Homo sapiens, UniProt Q9HBH9); test: Kinase inhibition assay (HotSpot); format: biochemical; details: 10 μM ATP; read-out: Compound IC50, MNK2
Text: as §1

[10] = tested on: HCoV-OC43 (VR-1558); test: Anti coronavirus activity: viral CPE inhibition in Vero 76 cells (microscopy, neutral red); format: cell-based; details: hCoV-OC43 (beta)
[11] = tested on: cell culture-derived HCV (HCVcc); format: cell-based, Hepatitis C virus

Sequence of BIKE (Q9NSY1 whole entry): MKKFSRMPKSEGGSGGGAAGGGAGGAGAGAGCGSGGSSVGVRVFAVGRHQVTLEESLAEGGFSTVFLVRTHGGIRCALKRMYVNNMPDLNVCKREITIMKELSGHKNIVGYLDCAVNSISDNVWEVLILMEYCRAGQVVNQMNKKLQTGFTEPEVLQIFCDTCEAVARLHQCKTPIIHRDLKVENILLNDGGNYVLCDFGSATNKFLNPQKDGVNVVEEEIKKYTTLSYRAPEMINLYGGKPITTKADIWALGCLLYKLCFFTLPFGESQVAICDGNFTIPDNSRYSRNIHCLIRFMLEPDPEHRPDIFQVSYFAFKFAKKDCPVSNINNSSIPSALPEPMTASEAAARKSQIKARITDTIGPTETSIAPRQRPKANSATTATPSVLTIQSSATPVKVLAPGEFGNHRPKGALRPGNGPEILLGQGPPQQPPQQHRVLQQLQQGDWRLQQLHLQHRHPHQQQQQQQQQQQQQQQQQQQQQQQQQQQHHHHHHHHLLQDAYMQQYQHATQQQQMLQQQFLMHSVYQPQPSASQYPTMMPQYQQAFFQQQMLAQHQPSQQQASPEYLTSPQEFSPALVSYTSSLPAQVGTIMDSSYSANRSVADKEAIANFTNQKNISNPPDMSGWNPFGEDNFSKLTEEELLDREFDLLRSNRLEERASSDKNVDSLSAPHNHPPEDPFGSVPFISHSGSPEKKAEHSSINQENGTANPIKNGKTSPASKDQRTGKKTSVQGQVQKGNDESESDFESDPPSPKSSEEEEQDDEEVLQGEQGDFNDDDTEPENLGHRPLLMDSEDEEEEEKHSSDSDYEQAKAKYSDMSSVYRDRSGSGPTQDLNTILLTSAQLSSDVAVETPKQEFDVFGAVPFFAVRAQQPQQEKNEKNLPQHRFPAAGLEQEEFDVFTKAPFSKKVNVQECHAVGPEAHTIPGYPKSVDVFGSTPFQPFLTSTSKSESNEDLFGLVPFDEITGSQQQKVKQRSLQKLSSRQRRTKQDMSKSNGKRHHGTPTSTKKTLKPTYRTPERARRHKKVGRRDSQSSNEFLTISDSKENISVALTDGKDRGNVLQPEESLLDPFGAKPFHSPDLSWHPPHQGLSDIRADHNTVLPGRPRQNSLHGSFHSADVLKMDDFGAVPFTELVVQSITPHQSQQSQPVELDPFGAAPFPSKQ
Sequence of CSNK2A2 (P19784 whole entry): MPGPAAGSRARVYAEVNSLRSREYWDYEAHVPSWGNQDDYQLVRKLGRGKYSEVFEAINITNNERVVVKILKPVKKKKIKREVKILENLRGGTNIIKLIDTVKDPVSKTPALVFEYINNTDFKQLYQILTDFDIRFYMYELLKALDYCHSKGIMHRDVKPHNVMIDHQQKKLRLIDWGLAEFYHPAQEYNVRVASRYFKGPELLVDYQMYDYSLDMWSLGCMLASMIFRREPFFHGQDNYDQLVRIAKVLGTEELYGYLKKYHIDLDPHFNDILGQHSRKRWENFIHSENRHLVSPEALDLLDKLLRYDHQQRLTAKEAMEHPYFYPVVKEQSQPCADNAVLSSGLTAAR
Sequence of PI3Kb (P42338 whole entry): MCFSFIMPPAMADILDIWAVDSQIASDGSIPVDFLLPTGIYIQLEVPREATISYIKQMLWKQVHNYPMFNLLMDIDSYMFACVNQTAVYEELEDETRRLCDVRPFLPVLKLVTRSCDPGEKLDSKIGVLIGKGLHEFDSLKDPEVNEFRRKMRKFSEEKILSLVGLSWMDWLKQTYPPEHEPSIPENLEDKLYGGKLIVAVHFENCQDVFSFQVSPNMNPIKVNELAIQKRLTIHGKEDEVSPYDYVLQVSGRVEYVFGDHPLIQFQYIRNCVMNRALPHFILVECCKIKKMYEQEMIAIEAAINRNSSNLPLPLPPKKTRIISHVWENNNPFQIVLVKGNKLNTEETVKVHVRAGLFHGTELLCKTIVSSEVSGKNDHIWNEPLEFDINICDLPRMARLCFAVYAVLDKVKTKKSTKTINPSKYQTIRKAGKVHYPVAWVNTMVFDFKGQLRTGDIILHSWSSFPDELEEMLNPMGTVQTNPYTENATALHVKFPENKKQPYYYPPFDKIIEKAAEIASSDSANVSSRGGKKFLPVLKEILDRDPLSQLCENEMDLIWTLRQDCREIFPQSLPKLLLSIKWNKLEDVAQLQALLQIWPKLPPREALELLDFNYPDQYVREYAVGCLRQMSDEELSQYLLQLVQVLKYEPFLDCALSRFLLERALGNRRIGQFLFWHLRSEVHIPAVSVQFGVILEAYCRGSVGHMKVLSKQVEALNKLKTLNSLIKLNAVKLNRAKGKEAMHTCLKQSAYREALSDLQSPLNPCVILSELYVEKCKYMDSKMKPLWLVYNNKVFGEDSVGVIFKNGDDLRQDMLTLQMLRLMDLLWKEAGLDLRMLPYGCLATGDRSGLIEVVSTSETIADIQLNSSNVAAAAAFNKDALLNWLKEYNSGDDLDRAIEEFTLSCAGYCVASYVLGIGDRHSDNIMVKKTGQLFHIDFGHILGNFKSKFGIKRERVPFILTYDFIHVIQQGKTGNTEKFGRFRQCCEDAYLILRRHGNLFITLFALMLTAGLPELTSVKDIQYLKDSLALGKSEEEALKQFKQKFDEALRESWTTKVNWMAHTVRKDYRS
Sequence of PI3Kb (P27986 whole entry partner): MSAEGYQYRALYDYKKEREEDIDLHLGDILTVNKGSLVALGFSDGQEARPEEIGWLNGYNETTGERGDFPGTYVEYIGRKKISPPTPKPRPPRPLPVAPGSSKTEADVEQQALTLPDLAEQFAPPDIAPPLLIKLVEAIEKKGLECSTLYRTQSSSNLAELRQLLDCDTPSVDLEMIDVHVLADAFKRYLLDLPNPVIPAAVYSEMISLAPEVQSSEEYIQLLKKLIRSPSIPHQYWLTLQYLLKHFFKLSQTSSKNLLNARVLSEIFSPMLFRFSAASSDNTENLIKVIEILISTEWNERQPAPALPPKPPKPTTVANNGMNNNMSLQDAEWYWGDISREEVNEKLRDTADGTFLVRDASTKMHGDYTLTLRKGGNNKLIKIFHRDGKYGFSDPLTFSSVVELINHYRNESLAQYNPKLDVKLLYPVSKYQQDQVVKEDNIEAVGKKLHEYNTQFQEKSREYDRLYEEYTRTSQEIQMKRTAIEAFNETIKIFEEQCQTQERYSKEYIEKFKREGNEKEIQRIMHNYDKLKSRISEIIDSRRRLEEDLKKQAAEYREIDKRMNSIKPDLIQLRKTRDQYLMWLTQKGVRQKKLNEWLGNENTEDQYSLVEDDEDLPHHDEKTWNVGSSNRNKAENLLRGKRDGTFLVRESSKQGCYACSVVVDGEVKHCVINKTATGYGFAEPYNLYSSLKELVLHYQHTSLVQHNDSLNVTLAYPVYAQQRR
Sequence of CSNK2A1 (P68400 whole entry): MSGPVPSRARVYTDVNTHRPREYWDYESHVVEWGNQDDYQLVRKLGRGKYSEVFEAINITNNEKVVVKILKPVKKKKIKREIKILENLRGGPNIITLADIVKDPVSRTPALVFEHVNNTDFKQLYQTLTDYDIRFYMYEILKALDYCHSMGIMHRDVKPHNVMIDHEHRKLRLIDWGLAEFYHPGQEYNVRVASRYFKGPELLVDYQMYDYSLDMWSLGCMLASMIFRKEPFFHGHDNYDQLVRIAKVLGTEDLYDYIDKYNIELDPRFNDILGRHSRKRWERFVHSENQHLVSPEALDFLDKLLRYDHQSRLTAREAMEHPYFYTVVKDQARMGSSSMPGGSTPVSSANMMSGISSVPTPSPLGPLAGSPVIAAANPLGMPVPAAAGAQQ
Sequence of AAK1 (Q2M2I8 whole entry): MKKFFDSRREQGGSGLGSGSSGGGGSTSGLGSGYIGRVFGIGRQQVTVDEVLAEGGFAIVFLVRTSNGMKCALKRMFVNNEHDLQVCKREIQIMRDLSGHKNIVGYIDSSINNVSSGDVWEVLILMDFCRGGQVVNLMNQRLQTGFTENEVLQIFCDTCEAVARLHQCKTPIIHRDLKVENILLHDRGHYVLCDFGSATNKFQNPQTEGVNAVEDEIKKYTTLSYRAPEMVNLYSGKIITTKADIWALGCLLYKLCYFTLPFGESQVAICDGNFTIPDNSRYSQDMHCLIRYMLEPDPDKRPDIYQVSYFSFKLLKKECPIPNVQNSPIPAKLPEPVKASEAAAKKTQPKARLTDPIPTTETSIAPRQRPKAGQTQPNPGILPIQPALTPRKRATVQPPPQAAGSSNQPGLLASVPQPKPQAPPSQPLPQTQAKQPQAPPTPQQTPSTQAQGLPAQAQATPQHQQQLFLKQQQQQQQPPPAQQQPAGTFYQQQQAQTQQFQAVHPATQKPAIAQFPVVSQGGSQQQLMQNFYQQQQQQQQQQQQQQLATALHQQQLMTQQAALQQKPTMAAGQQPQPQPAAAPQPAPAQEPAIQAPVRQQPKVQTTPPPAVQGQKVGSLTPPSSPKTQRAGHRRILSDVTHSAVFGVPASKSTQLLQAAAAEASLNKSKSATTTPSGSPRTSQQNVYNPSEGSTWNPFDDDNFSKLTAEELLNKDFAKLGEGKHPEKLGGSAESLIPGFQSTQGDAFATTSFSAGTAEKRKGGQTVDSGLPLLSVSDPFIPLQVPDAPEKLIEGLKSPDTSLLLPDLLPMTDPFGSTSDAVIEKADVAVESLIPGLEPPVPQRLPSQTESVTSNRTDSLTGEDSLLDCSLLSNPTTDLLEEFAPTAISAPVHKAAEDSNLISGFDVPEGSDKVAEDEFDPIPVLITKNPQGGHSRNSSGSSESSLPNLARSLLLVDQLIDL

Row | Compound | CC50 [1] | IC50 [2] | IC50 [3] | IC50 [4] | IC50 [5] | IC50 [6] | IC50 [7] | IC50 [8] | IC50 [9] | EC50 [10] | SI (CC50/EC50) [10] | EC50 [11]
1 | COc1cc(-c2cc(=O)c3c(O)cc(O)c(CC=C(C)C)c3o2)ccc1O [FBL-03G] | 2900 nM | 4 nM | 8 nM | 258 nM | 20 nM | 136 nM | 274 nM | 4 nM | 549 nM | 420 nM | 6.9 | –
2 | Human interferon alpha-2b [rIFNa-2b] | – | – | – | – | – | – | – | – | – | – | – | 0.63 IU/mL
